Each structure is given as a SMILES string. Where two headings read alike, the source gives them in different places. Where only a bound is given, the exact number is not on record here.

The values that follow come from article PMC7180939, “Antiplasmodial Activity of p-Substituted Benzyl Thiazinoquinone Derivatives and Their Potential against Parasitic Infections” (Molecules, 2020).

Series [1] relates to chloroquine-sensitive (D10) strain of P. falciparum. The series can be described thus: P. falciparum drug susceptibility assay (pLDH), D10 strain. The format is cell-based. The note with it: Plasmodium falciparum, read-out: D10 IC50. How it is done: (§1) All reagents were from Sigma Aldrich, Milan, Italy unless indicated otherwise. As reported in the literature, the chloroquine-sensitive (D10) and chloroquine-resistant (W2) strains of P. falciparum were maintained in vitro at 5% hematocrit medium (constituted of human type Apositive red blood cells) in RPMI 1640 (EuroClone, Celbio, Italy) with the addition of 1% AlbuMax (Invitrogen, Milan, Italy), 0.01% hypoxanthine, […], and […]. The resulting cultures were incubated at 37 °C in a mixture of standard gas with the following composition: 1% O2, 5% CO2, and 94% N2. […] Drugs were placed in 96 well flat-bottom microplates and a series of dilutions performed. Asynchronous cultures (parasitemia of 1–1.5%; 1% final hematocrit) were aliquoted into the plates and incubated for 72 h at 37 °C. The cultures were washed with PBS before the chemosensitivity assay while the parasite growth was determined spectrophotometrically (OD650) by measuring the parasite lactate dehydrogenase (pLDH) activity. These measurements were made according to the modified version of Makler’s method both in control and drug-tested cultures. Antiplasmodial activity is expressed as 50% inhibitory concentrations (IC50), which means the dose of compounds necessary to inhibit cell growth by 50%. Each IC50 value is the mean standard deviation of at least three separate experiments performed in duplicate.

Series [2] has as its system chloroquine-resistant (W2) strain of P. falciparum. The series can be described thus: P. falciparum drug susceptibility assay (pLDH), W2 strain. It counts as cell-based. The note with it: Plasmodium falciparum, read-out: W2 IC50. Here is the method: as §1
Series [3] has as its system human microvascular endothelial cells (HMEC-1). The series can be described thus: Cytotoxicity assay on HMEC-1 cell line. It counts as cell-based. The following applies: cytotoxicity on HMEC-1 cell line.
Series [4] relates to embryonic murine fibroblasts (NIH-3T3 cell line). Also on record: method as in PMID 31718145. The following applies: cytotoxicity on NIH-3T3 cell line; cited from earlier work.
In series [5] the test system is P. falciparum. Set-up: method as in PMID 30640072. The note with it: D10 and W2 strains, earlier work; cited from earlier work.
The test system of series [6] is S. mansoni. Also on record: method as in PMID 31718145. The following applies: schistosomula, adult worm pairs, juvenile parasites, eggs; cited from earlier work.
Details of series [7]: method as in PMID 31718145. The note with it: cited from earlier work.
The mark [8] stands for this setting: CQ-sensitive D10 strain, pLDH assay, 72 h, mean ± SD of three experiments in duplicate.
Where [9] appears, read: CQ-resistant W2 strain, pLDH assay, 72 h, mean ± SD of three experiments in duplicate.

As to `CCN(CC)CCCC(C)Nc1ccnc2cc(Cl)ccc12` (stereo not shown) [CQ, chloroquine, reference compound], the IC50 in series [1] (D10, 72 h) was found to be 40 nM; in series [2] (W2, 72 h) it was 540 nM.

Consider `CC[C@@]1(O)C(=O)OCc2c1cc1n(c2=O)Cc2cc3ccccc3nc2-1` [Camptothecin, reference compound], for which the IC50 in series [3] came to 0.018 µM.

With `COC1=C(Cc2ccccc2)C(=O)C2=C(NCCS2(=O)=O)C1=O` [Compound 22], the IC50 in series [1] (setting [8]) is 600 ± 210 nM; in series [2] (setting [9]) it was 700 ± 220 nM; in series [3], 17.6 ± 1.4 µM; in series [4] it was 88.6 ± 7.7 µM. In series [5], the “antiplasmodial activity (in words)” value was “active in the range of low-micromolar concentrations”.

Consider `COC1=C(Cc2ccccc2)C(=O)C=CC1=O` [Compound 23], for which, in series [6], the “activity against S. mansoni (in words)” value is “inactive”. The “antiplasmodial activity (in words)” value in series [5] was “absence of activity”.

Take `COC1=C(Cc2ccc(Cl)cc2)C(=O)C2=C(NCCS2(=O)=O)C1=O` [Compound 24]: the half-inhibitory concentration (IC50) was 1630 ± 350 nM in series [1] (setting [8]), 1900 ± 1050 nM in series [2] (setting [9]) and 8.51 ± 0.76 µM in series [3].

For the compound `COC1=C(Cc2ccc(C(F)(F)F)cc2)C(=O)C2=C(NCCS2(=O)=O)C1=O` [Compound 25], the IC50 in series [1] (setting [8]) was 5060 ± 1680 nM; in series [2] (setting [9]), 5020 ± 1810 nM; in series [3], 20.4 ± 1.6 µM.

Turning to `COC1=C(Cc2ccc(OC)cc2)C(=O)C2=C(NCCS2(=O)=O)C1=O` [Compound 26], the half-inhibitory concentration (IC50) in series [1] (setting [8]) is 1210 ± 200 nM; in series [2] (setting [9]), 1220 ± 240 nM; in series [3], 17.9 ± 1.1 µM; in series [4], more than 100 µM. Moreover, the cLogD in series [7] is 0.33.

Consider `COC1=C(Cc2ccc(OC(F)(F)F)cc2)C(=O)C2=C(NCCS2(=O)=O)C1=O` [Compound 27], for which the figures for the IC50 in series [1] (setting [8]), in series [2] (setting [9]) and in series [3] were 1120 ± 400 nM, 810 ± 190 nM and 3.59 ± 0.72 µM, respectively. The cLogD in series [7] was 1.37.
